Where “and” joins values, the source holds several entries; their conditions need not be identical. Equal values may be shown once.
Experiments:
[1] = target: Norepinephrine transporter (Rattus norvegicus, UniProt Q9JIA2)
[2] = target: Sodium-dependent dopamine transporter (Rattus norvegicus, UniProt P23977)
[3] = target: Sodium-dependent serotonin transporter (Rattus norvegicus, UniProt P31652)
Sequence of Sodium-dependent serotonin transporter (P31652 whole entry): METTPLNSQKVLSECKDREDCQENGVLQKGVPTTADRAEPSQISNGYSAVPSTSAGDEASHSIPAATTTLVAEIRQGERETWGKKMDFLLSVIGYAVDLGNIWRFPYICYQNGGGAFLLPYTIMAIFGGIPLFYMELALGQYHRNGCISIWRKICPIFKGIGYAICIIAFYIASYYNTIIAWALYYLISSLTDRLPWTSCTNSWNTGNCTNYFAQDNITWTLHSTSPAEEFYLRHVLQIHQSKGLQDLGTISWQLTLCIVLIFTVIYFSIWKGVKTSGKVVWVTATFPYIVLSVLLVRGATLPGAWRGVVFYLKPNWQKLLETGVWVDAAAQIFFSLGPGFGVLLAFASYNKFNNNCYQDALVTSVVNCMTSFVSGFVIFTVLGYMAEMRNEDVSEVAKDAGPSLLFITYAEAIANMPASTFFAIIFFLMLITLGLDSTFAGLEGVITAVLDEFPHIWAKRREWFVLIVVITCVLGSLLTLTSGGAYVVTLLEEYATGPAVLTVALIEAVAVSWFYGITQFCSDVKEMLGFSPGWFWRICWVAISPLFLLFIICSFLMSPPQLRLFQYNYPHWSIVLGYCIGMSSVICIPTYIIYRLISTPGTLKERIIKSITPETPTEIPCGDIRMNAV

Sequence of Sodium-dependent dopamine transporter (P23977 whole entry): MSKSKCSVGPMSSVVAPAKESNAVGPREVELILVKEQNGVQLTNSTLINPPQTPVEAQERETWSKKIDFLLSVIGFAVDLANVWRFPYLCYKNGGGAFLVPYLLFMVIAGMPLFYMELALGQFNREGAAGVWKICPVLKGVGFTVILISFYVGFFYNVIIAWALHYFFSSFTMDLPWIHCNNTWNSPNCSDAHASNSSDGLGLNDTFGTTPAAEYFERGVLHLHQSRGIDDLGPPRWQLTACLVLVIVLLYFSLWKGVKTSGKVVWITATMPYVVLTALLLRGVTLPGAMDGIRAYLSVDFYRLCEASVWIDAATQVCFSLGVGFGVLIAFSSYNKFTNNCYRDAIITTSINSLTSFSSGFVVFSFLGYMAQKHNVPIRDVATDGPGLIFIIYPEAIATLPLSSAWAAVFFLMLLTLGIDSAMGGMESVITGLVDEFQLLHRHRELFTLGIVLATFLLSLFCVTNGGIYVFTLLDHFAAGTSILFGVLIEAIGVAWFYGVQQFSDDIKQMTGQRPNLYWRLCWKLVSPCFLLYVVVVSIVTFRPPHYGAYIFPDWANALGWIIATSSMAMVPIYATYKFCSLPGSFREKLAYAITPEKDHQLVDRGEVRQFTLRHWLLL

Structure (SMILES) | Ki [1] [nM] | Ki [2] | Ki [3] [nM]
COC(=O)[C@H]1C(c2ccc(Cl)c(Cl)c2)CC2CCC1N2C/C=C/I (stereo partly drawn) [(2S,8R)-3-(3,4-Dichloro-phenyl)-8-((E)-3-iodo-allyl)-8-aza-bicyclo[3.2.1]octane-2-carboxylic acid methyl ester] | 500 | – | –
O[C@]1(c2ccc(Cl)cc2)c2ccccc2C2=NCCN21 [Mazanor] | – | 50 nM and 12 nM | –
COC(=O)[C@H]1[C@@H](c2ccc(I)cc2)C[C@@H]2CC[C@H]1N2C [RTI 55, (exo,exo)-isomer, Iodine (125) labeled] | 80 | 27.5 nM | 3.1
